Holding throughout (type): cell-based
The subject of experiment [1] is Plasmodium falciparum clone CDC Sierra Leone I (D-6). The experiment in a line: In vitro inhibition of [3H]hypoxanthine uptake, P. falciparum D-6 clone. The settings on record: for IC50: Plasmodium falciparum, read-out: IC50 (D-6). How it is done:
(§1) The in vitro assays were conducted by using a modification of the semiautomated microdilution technique of Desjardins et al.^11 and Chulay et al.^12 Two strains of Plasmodium falciparum clones, from CDC Indochina III (W-2), CDC Sierra Leone I (D-6). […] These solutions were subsequently serially diluted 2-fold with a Biomek 1000® (Beckman, Fullerton, Calif.) over 11 different concentrations. The parasites were exposed to serial dilutions of each compound for 48 h and incubated at 37° C. with 5% O2, 5% CO2, and 90% N2 prior to the addition of [^3H]hypoxanthine. […] Uptake of [^3H]hypoxanthine was measured with a Packard Topcount scintillation counter. […] The values without parentheses indicate culture in blood serum which more closely resemble conditions in a living animal.
(§2) The numbers associated with both W2 and D6 refer to IC50 values and the units are ng/ml.

The subject of experiment [2] is Plasmodium falciparum clone Thai TM90C2B. The experiment in a line: In vitro inhibition of [3H]hypoxanthine uptake, P. falciparum TM90C2B. The settings on record: values without parentheses: blood serum (footnote: blood plasma) replacing Albumax; for IC50: Plasmodium falciparum, TM90C2B. How it is done: (§3) The in vitro assays were conducted by using a modification of the semiautomated microdilution technique of Desjardins et al.^11 and Chulay et al.^12 Two strains of Plasmodium falciparum clones, from CDC Indochina III (W-2), CDC Sierra Leone I (D-6). […] They were derived by direct visualization and micromanipulation from patient isolates.^13 Test compounds were initially dissolved in DMSO and diluted 400-fold in RPMI 1640 culture medium supplemented with 25 mM Hepes, 32 mM HaHCO3, and 10% Albumax I® (GIBCO BRL, Grand Island, N.Y.). These solutions were subsequently serially diluted 2-fold with a Biomek 1000® (Beckman, Fullerton, Calif.) over 11 different concentrations. The parasites were exposed to serial dilutions of each compound for 48 h and incubated at 37° C. with 5% O2, 5% CO2, and 90% N2 prior to the addition of [^3H]hypoxanthine. After a further incubation of 18 h, parasite DNA was harvested from each microtiter well using Packard Filtermate 196 Harvester® (Meriden, Conn.) onto glass filters. Uptake of [^3H]hypoxanthine was measured with a Packard Topcount scintillation counter. […] This procedure was repeated with the test compounds initially dissolved in DMSO and diluted 400-fold in RPMI 1640 culture medium supplemented with 25 mM Hepes, 32 mM HaHCO3, and with blood serum replacing the 10% Albumax I® (see Table 1, figures without parentheses). The values without parentheses indicate culture in blood serum which more closely resemble conditions in a living animal.
(§4) Four strains of Plasmodium falciparum clones, from CDC Indochina III (W-2), CDC Sierra Leone I (D-6), Thai WR75-TM9, and Thai TM90C2B were utilized in susceptibility testing and the IC50 results appear in Table 1.

Experiment [3] relates to Plasmodium falciparum clone CDC Indochina III (W-2). Put plainly: In vitro inhibition of [3H]hypoxanthine uptake, P. falciparum W-2 clone. The following applies: for IC50: Plasmodium falciparum, read-out: IC50 (W-2). How it is done: as §1, §2
In experiment [4] the test system is Plasmodium falciparum clone Thai WR75-TM9. The experiment in a line: In vitro inhibition of [3H]hypoxanthine uptake, P. falciparum WR75-TM9. The following applies: values without parentheses: blood serum (footnote: blood plasma) replacing Albumax; for IC50: Plasmodium falciparum. How it is done:
as §3, §4

A further experiment relates to Plasmodium falciparum. The experiment in a line: In vitro antimalarial activity against Plasmodium falciparum (strain not given). The settings on record: judged from the IC50 values of Table 1. On the procedure: as §3, §4
Setting [5] is: values in parentheses: culture medium with 10% Albumax I.
Setting [6] is: values without parentheses: blood serum (footnote: blood plasma) replacing Albumax.

Converted amounts (≈) assume the structure as drawn. “And” between values parts separate entries of the source, which are not always exact repeats. Equal entries are not always repeated. Where two headings read alike, the source gives them in different places.

In the case of `O=C1c2cc(F)ccc2N2C(=O)c3ccccc3NC12` (stereo not drawn) [Example 4], the IC50 in experiment [1] (setting [5]) is 4.07 ng/mL (≈ 0.0152 µM); in experiment [1] (setting [6]) it was 18.9 ng/mL (≈ 0.0704 µM); in experiment [2] it was 29.8 ng/mL (≈ 0.111 µM); in experiment [3] (setting [5]), 2.33 ng/mL (≈ 0.00869 µM); in experiment [3] (setting [6]) it was 15.3 ng/mL (≈ 0.0572 µM).

Consider `Cc1ccc2nc3n(c(=O)c2c1)-c1ccc(F)cc1C3=O` [Example 11], for which the IC50 in experiment [1] (setting [5]) amounted to 4.9 ng/mL (≈ 0.0175 µM); in experiment [1] (setting [6]), 22.1 ng/mL (≈ 0.0787 µM); in experiment [2] it was 16.4 ng/mL (≈ 0.0585 µM); in experiment [3] (setting [5]) it was 2.8 ng/mL (≈ 0.00999 µM); in experiment [3] (setting [6]), 14.7 ng/mL (≈ 0.0524 µM).

For the compound `O=C1c2cc(F)ccc2-n2c1nc1cc(F)ccc1c2=O` [Example 12], the IC50 in experiment [4] was determined as 12 ng/mL (≈ 0.042 µM); in experiment [1] (setting [5]), 4.9 ng/mL (≈ 0.0172 µM); in experiment [1] (setting [6]), 8.54 ng/mL (≈ 0.03 µM); in experiment [2], 9.74 ng/mL (≈ 0.0343 µM); in experiment [3] (setting [5]) it was 1.6 ng/mL (≈ 0.00563 µM); in experiment [3] (setting [6]), 5.27 ng/mL (≈ 0.0186 µM). Moreover, the “IC50 (WR75-TM9)” value in experiment [4] is 16.249 ng/mL and 19.374 ng/mL. In addition, the “IC50 (D-6)” value in experiment [1] (setting [6]) was 14.239 ng/mL and 11.005 ng/mL. In addition, the “IC50 (TM90C2B)” value in experiment [2] is 16.914 ng/mL and 11.113 ng/mL. Besides, in experiment [3] (setting [6]), the “IC50 (W-2)” value was 5.787 ng/mL and 6.539 ng/mL.

Turning to `O=C1c2cc(F)ccc2-n2c1nc1ncccc1c2=O` [Example 17], the 50% inhibitory concentration (IC50) in experiment [4] was 9.93 ng/mL (≈ 0.0372 µM); in experiment [1] (setting [5]), 1.53 ng/mL (≈ 0.00573 µM); in experiment [1] (setting [6]), 4.93 ng/mL (≈ 0.0184 µM); in experiment [2], 4.21 ng/mL (≈ 0.0157 µM); in experiment [3] (setting [5]) it was 0.84 ng/mL (≈ 0.00314 µM); in experiment [3] (setting [6]), 2.12 ng/mL (≈ 0.00795 µM). Moreover, the “IC50 (WR75-TM9)” value in experiment [4] is 8.002 ng/mL (≈ 0.0299 µM).

In the case of `O=C1c2cc(F)ccc2-n2c1nc1c(F)cccc1c2=O` [Example 19], the 50% inhibitory concentration (IC50) in experiment [1] (setting [5]) came out at 2.57 ng/mL (≈ 0.00904 µM); in experiment [1] (setting [6]) it was 13.5 ng/mL (≈ 0.0476 µM); in experiment [2], 9.78 ng/mL (≈ 0.0344 µM); in experiment [3] (setting [5]), 1.58 ng/mL (≈ 0.00556 µM); in experiment [3] (setting [6]) it was 8.14 ng/mL (≈ 0.0286 µM).

On to `O=C1c2cc(Cl)ccc2-n2c1nc1ncccc1c2=O` [Example 21], for which, in the experiment on Plasmodium falciparum, the “effectiveness in treating/reducing malaria parasites as shown in Table 1” value is “most effective”. The IC50 came out at 0.93 ng/mL (≈ 0.00328 µM) in experiment [1] (setting [5]); 0.926 ng/mL (≈ 0.00326 µM) in experiment [1] (setting [6]); 2.3 ng/mL (≈ 0.00811 µM) in experiment [2]; 0.43 ng/mL (≈ 0.00152 µM) in experiment [3] (setting [5]); 1.28 ng/mL (≈ 0.00451 µM) in experiment [3] (setting [6]).

As for `CCOC(=O)c1ccc2c(c1)C(=O)c1nc3ncccc3c(=O)n1-2` [Example 24], the IC50 is 2.01 ng/mL (≈ 0.00626 µM) in experiment [1] (setting [5]), 10.1 ng/mL (≈ 0.0314 µM) in experiment [1] (setting [6]), 7.78 ng/mL (≈ 0.0242 µM) in experiment [2] and 0.91 ng/mL (≈ 0.00283 µM) in experiment [3] (setting [5]).

For `COc1cccc2c(=O)n3c(nc12)C(=O)c1cc(I)ccc1-3` [Example 27], the IC50 in experiment [1] (setting [5]) was determined as 3.01 ng/mL (≈ 0.00745 µM); in experiment [2], 41.1 ng/mL (≈ 0.102 µM); in experiment [3] (setting [5]), 1.79 ng/mL (≈ 0.00443 µM).

Regarding `O=C1c2cc(Br)ccc2-n2c1nc1ccncc1c2=O` [Example 39], the IC50 in experiment [4] is 4.2 ng/mL (≈ 0.0128 µM); in experiment [1] (setting [5]), 3.57 ng/mL (≈ 0.0109 µM); in experiment [1] (setting [6]), 3.57 ng/mL (≈ 0.0109 µM); in experiment [2], 46 ng/mL (≈ 0.14 µM); in experiment [3] (setting [5]), 1.88 ng/mL (≈ 0.00573 µM); in experiment [3] (setting [6]) it was 1.87 ng/mL (≈ 0.0057 µM).

Consider `O=C1c2cc(Cl)ccc2-n2c1nc1cc(F)ccc1c2=O` [Example 45], for which the IC50 was 14.2 ng/mL (≈ 0.0471 µM) in experiment [4], 1.28 ng/mL (≈ 0.00426 µM) in experiment [1] (setting [5]) and 0.728 ng/mL (≈ 0.00242 µM) in experiment [3] (setting [5]).

For `CN(CCO)c1ccc2c(=O)n3c(nc2c1)C(=O)c1cc(Cl)ccc1-3` [Example 46], the IC50 amounted to 66.4 ng/mL (≈ 0.187 µM) in experiment [4]; 7.61 ng/mL (≈ 0.0214 µM) in experiment [1] (setting [5]); 42.6 ng/mL (≈ 0.12 µM) in experiment [1] (setting [6]); 24.4 ng/mL (≈ 0.0686 µM) in experiment [2]; 6.32 ng/mL (≈ 0.0178 µM) in experiment [3] (setting [5]); 23 ng/mL (≈ 0.0646 µM) in experiment [3] (setting [6]).

Consider `Cc1ncc2c(=O)n3c(nc2n1)C(=O)c1cc(Cl)ccc1-3` [Example 55], for which the IC50 was 14.2 ng/mL (≈ 0.0476 µM) in experiment [4]; 7.2 ng/mL (≈ 0.0241 µM) in experiment [1] (setting [5]); 11.2 ng/mL (≈ 0.0376 µM) in experiment [1] (setting [6]); 5.48 ng/mL (≈ 0.0184 µM) in experiment [2]; 2.1 ng/mL (≈ 0.00703 µM) in experiment [3] (setting [5]); 2.3 ng/mL (≈ 0.00771 µM) in experiment [3] (setting [6]).

Regarding `N#CC(C#N)=c1c2cc(F)ccc2n2c(=O)c3ccccc3nc12` [Example 57], the IC50 in experiment [4] was determined as 82.6 ng/mL (≈ 0.263 µM); in experiment [1] (setting [5]) it was 20.3 ng/mL (≈ 0.0647 µM); in experiment [1] (setting [6]), 46.5 ng/mL (≈ 0.148 µM); in experiment [2], 62.2 ng/mL (≈ 0.198 µM); in experiment [3] (setting [5]), 10.6 ng/mL (≈ 0.0337 µM); in experiment [3] (setting [6]), 28.9 ng/mL (≈ 0.0921 µM).

Broadly, the IC50 is the point on the concentration scale where inhibition reaches its midpoint.
